Data: a melting point compilation (Tetko et al.)

SMILES | melting point [°C]
N=C(N)NCCS(=O)(=O)O | 263 to 265
Cc1cc(S(=O)(=O)Cl)c(C)cc1Cl | 49
COc1cc(CC(=O)O)cc(OC)c1 | 103
FC(Cl)(Cl)C(Cl)Cl | -82.6
CC(=O)c1ccnc(Cl)c1 | 36.5 to 39
CC12CCC3C(CCC4CC(=O)CCC43C)C1CCC2O (configuration not stated) | 181
O=C1COc2cc(O)ccc21 | 241
Nc1cccc2c(O)nnc(O)c12 | 330
O=C(C1=NOC2C(=O)N(c3ccccc3Cl)C(=O)C12)c1cccs1 (configuration not stated) | 180
O=C(O)C1c2ccccc2C(=O)N(Cc2ccc(F)cc2)C1c1ccncc1 (configuration not stated) | 243 to 245
CNC(=O)ON=C(C)C(C)SC (configuration not stated) | 37
Fc1ccc(I)cn1 | 32
COc1ccc(/N=N/c2sc(/C(C#N)=N/Nc3ccc(F)cc3)nc2C)cc1 | 214
CC1=NCCN1 | 107
Cc1ccc(-c2csc(/C(C#N)=N/Nc3ccc(F)cc3)n2)cc1 | 196
Sc1nnc(-c2ccco2)n1-c1ccc(OCc2ccccc2)cc1 | 236 to 238
N#CC1=C(N)Oc2c(c(C(F)(F)F)nn2-c2ccccc2)C1c1ccccc1Cl (configuration not stated) | 166
Cc1cc(C)n2nc(N)c(/N=N/c3ccccc3C)c2n1 | 256
OCCC1CCNCC1 | 132
Cc1nc(/C(C#N)=C/c2ccc(O)cc2)sc1/N=N/c1ccc(Cl)cc1 | 230
Cn1ccc(-c2cccc(C(=O)Oc3c(F)c(F)c(F)c(F)c3F)c2)n1 | 126 to 127
Sc1nccc(-c2cccs2)n1 | 206 to 215

SMILES | melting point [°C]
CCCN=C=O | -30
Cc1ccc(C(c2ccc(C)o2)c2cc(Br)cc(C)c2O)o1 | 198 to 199
OCc1cc(Cl)ccc1Cl | 78
Sc1ccccc1 | -14.9
CCCOC(=O)CCCCC(=O)OCCC | -15.7
COc1ccc(Br)c2c1C(=O)C2 | 74
CNC(=O)N(C)C | 75.5
Cc1cc(NN)nc(C)n1 | 189 to 190
Cc1ccc(C(=O)C(C)CN2CCCCC2)cc1 (configuration not stated) | 176
N#Cc1cccnc1N1CCNCC1 | 76 to 78
CC1CCC2(C(=O)O)CCC3(C)C(=CCC4C5(C)CCC(O)C(C)(C)C5CCC43C)C2C1C (configuration not stated) | 284
CC(C)(S)C(=O)O | 47
C=C1CCOC2(C(O)C(C)(O)CO)NC(=O)C1(O)NC2=O (configuration not stated) | 188
CC(C)S(=O)(=O)c1csc(C(=O)O)c1N | 158
CSc1sc(Cl)c2c1C(=O)CC(C)(C)C2 | 126 to 129
Cc1nc(-c2cnccn2)sc1C(=O)CBr | 100
CCSc1nc(NC(C)C)nc(NC(C)C)n1 | 105
CCCC(O)C=CC=CC=CC#CC#CCCCO (configuration not stated) | 54
CCCCCCCCCCCCCCCC(C)=O | 48
O=C1c2ccccc2C(=O)C2CC3=C(CC=CC3)CC12 (configuration not stated) | 155
BrCC1CO1 (configuration not stated) | -40
C=CCC1(CC(=C)Br)C(=O)NC(=O)NC1=O | 168

SMILES | melting point [°C]
COc1c(OC)c(=O)c1=O | 55 to 57
CCC1CC(OP(=O)(O)O)CC(C)(C)N1O (configuration not stated) | 270
O=C1N(c2ccccc2)C(=O)[C@@]2(Cl)C(c3ccccc3)(c3ccccc3)C[C@@]12Cl | 160
Cc1nc(Cl)c(C#N)c(C)c1Cl | 82 to 83
O=Cc1cccc(-c2nccs2)c1 | 67 to 68
CCCCCCCCCCC(C)Br (configuration not stated) | -96
CCCCNC(=O)NNC(=O)OCC | 97
N#CSc1ccc([N+](=O)[O-])c(C(=O)O)c1 | 156 to 160
CC(C)(C)c1ccc(-c2noc(CCl)n2)cc1 | 46 to 48
FC(F)(Cl)C(F)(F)Cl | -94
CC(C)(C)C(=O)NNCc1ccccc1 | 68.5
Oc1ccc2c(c1)C13CCCCC1C(C2)N(CCc1ccccc1)CC3 (configuration not stated) | 244
OCC(F)(F)C(F)(F)C(F)(F)C(F)(F)C(F)(F)C(F)(F)C(F)(F)C(F)F | 58 to 60
Cc1nn(C)c(Cl)c1S(=O)(=O)Cl | 35
O=S(=O)(Nc1ccc(F)cc1C(F)(F)F)C(F)(F)F | 45
CCCCCC(O)C=CC1C(O)CC(=O)C1CC=CCCCC(=O)O (configuration not stated) | 67
CC(=O)c1ccc(Oc2ccc(Cl)cc2)cc1Cl | 54 to 56
CCOC(=O)c1c[nH]nc1C(F)(F)F | 145 to 148
Sc1nccc(-c2ccc(Cl)cc2)n1 | 210 to 214
CC(C)N1CSc2nnc(-c3cccnc3)n2C1 | 289
CCCNC(=O)NCCC | 105
c1ccc(C23CC4CC(CC(C4)C2)C3)cc1 | 84 to 85

SMILES | melting point [°C]
COc1cc(OC)c(C#N)c(OC)c1 | 142 to 145
COC(=O)CCC(C)C1CCC2C3C(OC(C)=O)C(Br)C4CCCCC4(C)C3CCC12C (configuration not stated) | 158 to 159
Brc1ccc2ncccc2c1 | 24
Nc1c2c(nc3ccccc13)CCCC2 | 184
Cc1c(C)c(C)c2c(c1C)CCC2=O | 154
CC1(c2ccccc2)CNCCO1 (configuration not stated) | 36
CC12CCC(C(=CNC(N)=O)C1=O)C2(C)C (configuration not stated) | 197
C1CCC(CCC2CCCCC2)CC1 | 11.5
Cc1ccc2[nH]cc(CC(N)C(=O)O)c2c1 (racemic) | 280 to 282
O=C(Cl)c1ccc(-c2ncccn2)cc1 | 172 to 175
CCn1c(=O)c(C=C2C(=O)NN=C2c2c(O)c3ccccc3n(C)c2=O)c(O)c2ccccc21 | 295
Cc1cccc2cc3c(ccc4ccccc43)cc12 | 156
O=C(Cc1ccccc1)CC(c1ccco1)N1CCCCC1 (configuration not stated) | 130
N#C/C(=C/c1ccc(F)cc1)c1nc(-c2ccc(Cl)cc2)cs1 | 184
CCCCN1CCCCC1C(=O)Nc1c(C)cccc1C (configuration not stated) | 107
Cn1ccc2c1CC(C)(C)CC2=O | 109
O=C(CCCCl)c1ccc(O)cc1 | 113
O=C1c2ccccc2C(=O)C1c1ccc(F)cc1 | 120
C#CC(C)(O)CC (configuration not stated) | 30.5

Second part, the compound after the results:

melting point [°C] | SMILES
76.2 | COC(=O)C1(S(=O)(=O)c2ccc(Cl)cc2)CCC1
210 to 212 | O=[N+]([O-])c1ccc2nc(C(Cl)(Cl)Cl)[nH]c2c1
37 to 38 | O=[N+]([O-])c1ccccc1OCCCBr
215 | CC(=O)Oc1ccc2cc(OC(C)=O)ccc2c1
75 | O=[N+]([O-])c1ccccc1Nc1ccccc1
190 | NC(=O)N1c2ccccc2C=Cc2ccccc21
208 | Cc1ccc(C(=O)O)cc1Br
124 | O=C(C(=O)C(Br)c1ccccc1)C(Br)c1ccccc1 (configuration not stated)
41 | CCCOc1ccc(C#N)cc1
66 to 69 | CO/C(C)=C(\C#N)c1ccccc1[N+](=O)[O-]
290 | Nc1ccc(C(=O)O)cc1[N+](=O)[O-]
91 to 96 | O=C(O)C=CC(=O)c1ccccc1
130 to 131 | CCc1ccc(O)c(C(C)=O)c1O
111 to 112 | COC(=O)c1cc(C)nn1C(=O)OC
188 | Nc1ccc(Nc2ccc([N+](=O)[O-])cc2[N+](=O)[O-])cc1
81 to 86 | COC(=O)CC(=O)c1ccc(C(=O)OC)cc1
109 to 111 | CSc1ncc(CO)n1Cc1ccccc1
87 to 88 | COc1ccc(Br)cc1[N+](=O)[O-]
245 to 263 | NC(CO)(Cc1ccccc1)C(=O)O (racemic)
80 | COc1ccccc1C1CNCCN1 (configuration not stated)
40 | CC(C)(C)c1ccc(C(=O)c2ccccc2)cc1
65 to 67 | CSc1nc2ccccc2c(=O)n1C
40 | CC(=O)c1cccnc1C(=O)OC(C)C
169 to 173 | O=C(O)c1ccc(F)cc1Br

melting point [°C] | SMILES
175 | O=C(/C=C/Nc1ccccc1)c1ccc2c(c1)CCCC2
123 | CC(C)OC(=O)C1(S(=O)(=O)c2ccc([N+](=O)[O-])cc2)CC1
109 to 114 | Cc1ccc(C2(C(=O)O)CC2)cc1
216 | Nc1nnc(Sc2ncccc2[N+](=O)[O-])s1
150 to 151 | NC(=S)Nc1cccc(Br)c1
79 to 81 | COc1ccc(-c2noc(C)c2C(=O)Cl)cc1
125 | CC1(CO)CN(c2ccccc2)NC1=O (configuration not stated)
64.5 | CCN(CC)CCNc1ccc(C)c2sc3ccccc3c(=O)c12
210 | CCNc1nc2c(cc1C(=O)OC)c(=O)oc1ccccc12
56 | CC(=O)c1ccc(F)c(Br)c1
240 | CC(=O)Nc1ccc(S(=O)(=O)Nc2ccc([N+](=O)[O-])cc2)cc1
100 | N#CC(C#N)=C(CC=O)c1ccc(Cl)cc1
49 | COC(=O)c1ccno1
207 to 208 | CCOC(=O)C(C(C)=O)C(=O)/C=C/c1ccc(OC)c(OCc2ccccc2)c1 (configuration not stated)
170 | COc1ccc2c(c1)c(CC(=O)O)c(C)n2C(=O)C=Cc1ccccc1
260 | Cc1cc([N+](=O)[O-])cnc1N
179 | CC1(C)OC(=O)C(=Cc2ccc(-c3cccc([N+](=O)[O-])c3)o2)C(=O)O1
19 | N#CCc1ccccc1Br
41 to 44 | Cc1cccc(CCC(=O)O)c1
104 | COc1cc(C(c2ccc(C)o2)c2ccc(C)o2)c(O)cc1[N+](=O)[O-]
321 | Cc1cc2c(C#N)c3n(C)c4ccccc4n3c(=O)c2c(C)n1
152 | CN(C)C(=S)Sc1ccc([N+](=O)[O-])cc1[N+](=O)[O-]
89.5 | CCCNC(=O)COC(=O)c1ccccc1
